Values quoted from earlier work in US9333175B2, “Controlled release levetiracetam formulations and methods for producing the same” (Mylan Inc., priority 2010, dated 2016).

Conditions: A. J. Gower et al., Eur. J. Pharmacol., 222, 1992, 193-203

Row | Compound | activity in the treatment of epilepsy
1 | CC[C@@H](C(N)=O)N1CCCC1=O [Levetiracetam, (S)-(−)-alpha-ethyl-2-oxo-1-pyrrolidine acetamide] | effective in the treatment of epilepsy
2 | CC[C@H](C(N)=O)N1CCCC1=O [(R)-(+)-alpha-ethyl-2-oxo-1-pyrrolidine acetamide] | completely lacks activity
